Source: patent EP4748841A1, “BICYCLO[5,6] IMIDAZOLE PYRIMIDONE DERIVATIVE AND PREPARATION METHOD THEREFOR AND USE THEREOF” (Shujing Biopharma Co., Ltd, priority 2023, dated 2025)
Where two headings read alike, the source gives them in different places.

Legend:
[1] = Liver microsome stability experiment (cynomolgus monkey); type: in vitro ADME; details: pH 7.4, Cynomolgus monkey liver microsomes, 0.5 mg/mL; for CLint scaled at 1 µM: cynomolgus monkey, liver microsomes
Method: This experiment aimed to evaluate the phase I metabolic stability of the compounds of the present disclosure in liver microsomes of SD rats, beagle dogs, cynomolgus monkeys, and humans.
• (1) Buffer preparation: 73.21 g of dipotassium hydrogen phosphate trihydrate and 10.78 g of potassium dihydrogen phosphate were dissolved in 4000 mL of ultrapure water. The pH of the solution was adjusted to within 7.40 ± 0.10 using 10% phosphoric acid or 1 M potassium hydroxide, resulting in a final concentration of 100 mM. • (2) Solution preparation and dilution: Stock solutions of the test compounds at a concentration of 10 mM were prepared in dimethyl sulfoxide (DMSO) and stored at 4 °C, and they were diluted into 100 µM working solutions with pure acetonitrile when used. A stock solution of the control compound testosterone at a concentration of 10 mM was prepared in DMSO and stored at -20 °C, and it was diluted into a 400 µM working solution with pure acetonitrile when used. • (3) Termination solution preparation: The termination solution was an acetonitrile solution containing an internal standard (terfenadine). The prepared termination solution was stored in a refrigerator at 2-8 °C. • (4) Liver microsome solution preparation: Liver microsomes from various species (SD rat, beagle dog, cynomolgus monkey, and human) were diluted into 20× working solutions using 100 mM potassium phosphate buffer. The final concentration of the liver microsomes in the reaction system was 0.5 mg/mL. • (5) Reduced nicotinamide adenine dinucleotide phosphate (NADPH) regeneration system preparation: Appropriate amounts of nicotinamide adenine dinucleotide phosphate (NADP), glucose-6-phosphate (G6P), magnesium chloride (MgCl2), and glucose-6-phosphate dehydrogenase (G6PDH) were weighed to prepare stock solutions at concentrations of 65.33 mM, 330 mM, 300 mM, and 250 Units/mL, respectively. The four stock solutions described above were each added to an appropriate amount of buffer, and the mixture was mixed well by gently inverting up and down. The final concentrations of NADP, G6P, MgCl2, and G6PDH in the NADPH regeneration system were 2.65 mM, 10.2 mM, 6.12 mM, and 2.45 Units/mL, respectively. • (6) Incubation process: The incubation was completed in 96-well plates. Several incubation plates were prepared and named T0, T5, T10, T20, T40, T60, and NCF60, respectively. The first 6 plates corresponded to reaction time points of 0 min, 5 min, 10 min, 20 min, 40 min, and 60 min, respectively. The NCF60 plate was incubated for 60 min with potassium phosphate buffer replacing the NADPH regeneration system solution. Samples under all conditions were prepared in triplicate.
2 µL of the test compound or control compound and 100 µL of microsome working solution (containing 1 mg/mL liver microsome protein) were added to each of the T0, T5, T10, T20, T40, T60, and NCF60 plates, and only the microsome working solution was added to the Blank 60 plate. The plates described above were then pre-incubated in a 37 °C water bath for about 10 min.
After the pre-incubation was completed, 98 µL of the NADPH regeneration system working solution was added to each sample well except for the NCF60 plate and the T0 plate to initiate the reaction, and 98 µL of potassium phosphate buffer was added to each well of the NCF60 plate. Therefore, for the sample wells containing the test sample or control substance working solution, the final concentrations of TC and testosterone in the reaction were 1 µM and 4 µM, respectively, the concentration of liver microsomes was 0.5 mg/mL, and the final concentrations of DMSO and acetonitrile in the reaction system were 0.01% (v/v) and 0.99% (v/v), respectively.
After incubation for an appropriate time (e.g., 5 min, 10 min, 20 min, 40 min, and 60 min), 600 µL of a termination solution (an acetonitrile solution containing 100 ng/mL […]) was added to each test compound sample well and control compound sample well to terminate the reaction. […]

Lp-PLA2 = biological target: T1, Lp-PLA2 (Homo sapiens, UniProt Q13093); test: Inhibitory activity against Lp-PLA2 in human plasma (Thio-PAF assay); type: biochemical; details: 2-thio-PAF substrate, 30 min pre-incubation
T1 construct: from tissue; host or cells: pooled (mixed) human plasma
T1 sequence (Q13093 22-441): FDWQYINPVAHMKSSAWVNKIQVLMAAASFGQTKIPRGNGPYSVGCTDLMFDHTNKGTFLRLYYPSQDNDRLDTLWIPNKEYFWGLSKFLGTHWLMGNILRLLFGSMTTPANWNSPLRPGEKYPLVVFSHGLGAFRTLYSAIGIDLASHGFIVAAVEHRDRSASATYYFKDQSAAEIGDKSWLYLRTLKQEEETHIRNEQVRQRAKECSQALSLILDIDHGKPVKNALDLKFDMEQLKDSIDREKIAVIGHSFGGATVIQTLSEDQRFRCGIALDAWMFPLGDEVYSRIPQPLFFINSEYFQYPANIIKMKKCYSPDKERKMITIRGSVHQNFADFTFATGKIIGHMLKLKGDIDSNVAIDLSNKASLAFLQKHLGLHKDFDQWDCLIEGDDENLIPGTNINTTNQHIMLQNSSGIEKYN
Source text: The literature reports that 2-Thio-PAF, commercially available from Cayman Chemical, is a substrate for PAF hydrolase (PAF-AH). After its cleavage by PAF-AH, the free thiol released at the sn-2 position can react with 7-diethylamino-3-(4'-maleimidophenyl)-4-methylcoumarin (CPM), resulting in increased fluorescence. Thus, Lp-PLA2 inhibitors can prevent this cleavage, and no increase in fluorescence is observed. In this experiment, the human plasma assay employed the same thioester analog of PAF as described in the recombinant human Lp-PLA2 assay described above.
• (1) The Thio-PAF assay was performed as a quenched 75 µL assay. A compound source plate was prepared by preparing 1:4 (v/v) serial diluents of the compounds in pure DMSO in a 96-well microplate. • (2) 1 µL of each test compound from the compound source plate was transferred into a 96-well microplate containing 40 µL of pre-thawed mixed human plasma by a Rainin multichannel pipette, and the plasma was thawed at room temperature and centrifuged at 2000 rpm for 10 min. The plate was shaken on a microplate shaker for 2 min for uniform mixing. • (3) After 30 min of pre-incubation at room temperature, 10 µL of a substrate solution was added sequentially to the 96-well microplate described above by a Rainin multichannel pipette. The substrate solution contained 2.5 mM 2-thio-PAF (from an ethanol mother liquor), 32 µM CPM (from a DMSO mother liquor), and 3.2 mM N-ethylmaleimide (freshly prepared in DMSO for each experiment) in assay buffer (pH 7.4) consisting of 50 mM HEPES, 150 mM NaCl, and 1 mM CHAPS. After the addition was completed, the plate was immediately shaken for 2 min, and the reaction time for the substrate was 4 min in total. After the reaction was completed, the reaction was quenched with 25 µL of an aqueous solution of 5% trifluoroacetic acid. The plate was centrifuged at 1000 rpm for 1 min. • (4) The FLINT signal (FLINT380/480) was read using a microplate reader. • (5) IC50 data, curve fitting, and QC analyses were performed using GraphPad Prism 8.0 and Excel.

CLint scaled at 1 µM ([1]; read-out: CL(liver)) [mL/min/kg] | CLint scaled at 1 µM ([1]; read-out: CLint(liver)) [mL/min/kg] | half-life at 1 µM [1] [min] | IC50 (Lp-PLA2) [nM] | SMILES
28.3 | 81 | 23.1 | 16.4 | O=c1nc(OCc2cc(F)c(Oc3ccnc(C(F)(F)F)c3)c(F)c2)cc2n1C[C@H]1CCCN21 [Comparative Example 1, reference compound]
< 8.2 | < 10 | > 186 | 3.3 | O=c1nc(OCc2cc(F)c(Oc3ccnc(C(F)(F)F)c3)c(F)c2)cc2n1C[C@H]1CCN21 [Example 34-R]
